Read-outs that look alike come from different tables or passages of the source.

Format in all cases: biochemical
For test [1], the target named is T1, Calpain I from human erythrocytes (Homo sapiens, UniProt P07384).
T1 construct: Calpain I was purified from human erythrocytes; from tissue; host or cells: human erythrocytes
T1 sequence (P07384 1-714): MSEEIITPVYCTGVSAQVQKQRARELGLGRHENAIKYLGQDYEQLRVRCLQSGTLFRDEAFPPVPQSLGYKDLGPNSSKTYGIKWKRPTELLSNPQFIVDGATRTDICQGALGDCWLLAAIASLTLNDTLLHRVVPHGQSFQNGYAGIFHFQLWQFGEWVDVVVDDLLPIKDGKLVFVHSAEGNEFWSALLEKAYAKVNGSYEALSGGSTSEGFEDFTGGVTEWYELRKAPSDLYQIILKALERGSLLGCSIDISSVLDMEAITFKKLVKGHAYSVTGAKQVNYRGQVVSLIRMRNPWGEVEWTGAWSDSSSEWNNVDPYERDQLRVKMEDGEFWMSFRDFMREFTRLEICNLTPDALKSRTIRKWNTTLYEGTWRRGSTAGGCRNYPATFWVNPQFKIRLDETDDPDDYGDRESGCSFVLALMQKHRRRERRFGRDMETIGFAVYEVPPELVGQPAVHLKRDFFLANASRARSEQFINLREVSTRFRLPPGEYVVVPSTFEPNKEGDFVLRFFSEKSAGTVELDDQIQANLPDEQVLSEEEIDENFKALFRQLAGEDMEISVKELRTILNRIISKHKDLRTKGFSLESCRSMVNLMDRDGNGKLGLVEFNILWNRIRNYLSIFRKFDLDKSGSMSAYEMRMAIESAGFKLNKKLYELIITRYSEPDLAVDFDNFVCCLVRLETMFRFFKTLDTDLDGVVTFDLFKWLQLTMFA
T1 sequence (P04632 1-268 partner): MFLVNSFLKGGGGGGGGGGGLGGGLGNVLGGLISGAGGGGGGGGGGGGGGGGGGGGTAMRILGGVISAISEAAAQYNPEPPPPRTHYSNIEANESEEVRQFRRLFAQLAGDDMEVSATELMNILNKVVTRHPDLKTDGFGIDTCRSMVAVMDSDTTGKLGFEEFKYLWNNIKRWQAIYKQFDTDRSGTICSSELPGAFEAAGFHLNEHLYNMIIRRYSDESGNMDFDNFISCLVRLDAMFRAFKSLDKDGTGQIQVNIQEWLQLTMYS
Description: Calpain I inhibition, Suc-Leu-Tyr-AMC hydrolysis (KI). The conditions noted are these: read-out: KI Cal I. The method, boiled down: (§1)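 Human erythrocyte calpain I and rabbit calpain II were followed by fluorimetric AMC release from Suc-Leu-Tyr-AMC at pH 8.0 (25 mM Tris, 10 mM CaCl2). Cathepsin B was run at pH 5.2 with 0.5 mM DTT on a p-nitroanilide substrate, or with Z-Arg-Arg-AFC (ex 400/em 505 nm). Enzyme was added last, and KI was taken from Dixon or Lineweaver-Burk analysis.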

For test [2], the target named is T2, Human leukocyte cathepsin G (Homo sapiens, UniProt P08311).
T2 sequence (P08311 21-255): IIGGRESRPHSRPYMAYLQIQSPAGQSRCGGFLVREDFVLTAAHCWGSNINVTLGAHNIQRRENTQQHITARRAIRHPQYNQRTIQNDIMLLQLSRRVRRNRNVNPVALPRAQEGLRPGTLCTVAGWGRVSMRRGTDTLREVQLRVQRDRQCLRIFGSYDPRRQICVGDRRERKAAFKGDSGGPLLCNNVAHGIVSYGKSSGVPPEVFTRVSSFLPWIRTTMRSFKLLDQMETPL
Description: Cathepsin G inhibition, Suc-Val-Pro-Phe-NA hydrolysis. Conditions: Table 4, Z-Leu--AA--CONH-R. The procedure: Peptide α-ketoamides were assayed as reversible enzyme inhibitors. Various concentrations of inhibitors in Me2 SO were added to the assay mixture which contained buffer and substrate. The reaction was started by the addition of the enzyme and the hydrolysis rates were followed spectrophotometrically or fluorimetrically.
A 0.1M Hepes, 0.5M NaCl, pH 7.5 buffer was utilized for human leukocyte elastase (HLE), porcine pancreatic elastase (PPE), chymotrypsin and cathepsin G. A 0.1 Hepes, 0.01 M CaCl2, pH 7.5 buffer was utilized for trypsin, plasmin, and coagulation enzymes. A 50 mM Tris.HCl, 2 mM EDTA, 5 mM cysteine, pH 7.5 was used as a buffer for papain. A 88 mM KH2 PO4, 12 mM Na2 HPO4, 1.33 mM EDTA, 2.7 mM cysteine, pH 6.0 solution was used as a buffer for cathepsin B. A 20 mM Hepes, 10 mM CaCl2, 10 mM mercatoethanol, pH 7.2 buffer was utilized for calpain I and calpain II.
HLE and PPE were assayed with MeO-Suc-Ala-Ala-Pro-Val-NA and Suc-Ala-Ala-Ala-NA, respectively Nakajima et al., J. Biol. Chem. 254, 4027-4032 (1979); incorporated herein by reference!. Human leukocyte cathepsin G and chymotrypsin Aα were assayed with Suc-Val-Pro-Phe-NA Tanaka et al., Biochemistry 24, 2040-2047 (1985); incorporated herein by reference!. The hydrolysis of peptide 4-nitroanilides was measured at 410 nm ε410 =8800 M^-1 cm^-1; Erlanger et al., Arch. Biochem. Biophys. 95, pp 271-278 (1961); incorporated herein by reference!. Trypsin, thrombin, human plasma kallikrein, porcine pancreatic kallikrein, human factor XIa, and human plasmin were assayed with Z-Arg-SBzl or Z-Gly-Arg-SBu-i McRae et al., Biochemistry 20, 7196-7206 (1981); incorporated herein by reference!. All peptide thioester hydrolysis rates were measured with assay mixtures containing 4,4'-dithiodipyridine ε324 =19800 M^-1 cm^-1; Grasetti & Murray, Arch. Biochem. Biophys. 119, 41-49 (1967); incorporated herein by reference!.

The target of test [3] is T3, human leukocyte elastase (HLE) (Homo sapiens, UniProt P08246).
T3 sequence (P08246 30-267): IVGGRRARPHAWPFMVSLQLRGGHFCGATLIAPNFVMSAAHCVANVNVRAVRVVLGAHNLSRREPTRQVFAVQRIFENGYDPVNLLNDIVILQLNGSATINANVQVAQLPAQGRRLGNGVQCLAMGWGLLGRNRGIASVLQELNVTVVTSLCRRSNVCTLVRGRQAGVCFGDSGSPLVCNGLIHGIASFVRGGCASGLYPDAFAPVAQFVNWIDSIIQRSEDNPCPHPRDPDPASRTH
The experiment in a line: HLE inhibition, MeO-Suc-Ala-Ala-Pro-Val-NA hydrolysis. The conditions noted are these: for IC50: Table 4, Z-Leu--AA--CONH-R; for Ki: Table 4, in brackets under the IC50. The method, boiled down: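 Reversible inhibition tested with inhibitor (in Me2SO) and substrate in 0.1 M Hepes, 0.5 M NaCl, pH 7.5; reaction started by enzyme. Cathepsin G used Suc-Val-Pro-Phe-NA, HLE used MeO-Suc-Ala-Ala-Pro-Val-NA; 4-nitroanilide release followed at 410 nm.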

The next test deals with calpain II from rabbit. The experiment in a line: Calpain II inhibition, Suc-Leu-Tyr-AMC hydrolysis (KI). The conditions noted are these: Table 2, Z-Leu--AA--CONH--CH2 CH(OH)-R; read-out: KI Cal II. In short, it runs like this:
as §1

The next test deals with T4, cathepsin B (Homo sapiens, UniProt P07858).
T4 construct: purchased Sigma
The experiment in a line: Cathepsin B inhibition (KI). The conditions noted are these: Table 2, Z-Leu--AA--CONH--CH2 CH(OH)-R; read-out: KI Cat B. In short, it runs like this:
as §1

The mark [4] stands for this setting: Table 2, Z-Leu--AA--CONH--CH2 CH(OH)-R.

For the compound `CC[C@H](NC(=O)[C@H](CC(C)C)NC(=O)OCc1ccccc1)C(=O)C(=O)NCC(O)c1ccc(N(C)C)cc1` (stereo partly drawn) [Z-Leu-Abu-CONH--CH2 CH(OH)C6 H4 (4-N(CH3)2)], the Ki amounted to 0.33 µM in test [1] (setting [4]) and 19 µM in test [3]. Also, the results for the IC50 in test [2] and in test [3] were greater than 204 µM and 18 µM, respectively.
Turning to `CCC(NC(=O)C(CC(C)C)NC(=O)OCc1ccccc1)C(=O)C(=O)NCC(O)c1cccc(C(F)(F)F)c1` (stereo not drawn) [Z-Leu-Abu-CONH-CH2 CH(OH)-C6 H4 (3-CF3), Z-Leu-Abu-CONH--CH2 CH(OH)C6 H4 (3-CF3)], the Ki in test [1] (setting [4]) was 0.35 µM; in test [3] it was 9 µM. Further, the 50% inhibitory concentration (IC50) in test [2] is greater than 204 µM; in test [3], 11 µM.
Regarding `CC(C)CC(NC(=O)OCc1ccccc1)C(=O)NC(Cc1ccccc1)C(=O)C(=O)NCCCN1CCOCC1` (stereo not drawn) [Z-Leu-Phe-CONH-(CH2)3 -4-morpholinyl, Z-Leu-Phe-CONH--(CH2)3 -4-Morpholinyl], the Ki in test [1] (Table 1, Z-Leu--AA--CONHR) was 0.22 µM. Besides, the half-inhibitory concentration (IC50) in test [2] was 136 µM; in test [3] it was greater than 222 µM.
Turning to `CC(C)C[C@H](NC(=O)OCc1ccccc1)C(=O)N[C@@H](Cc1ccccc1)C(=O)C(=O)NCC(O)c1ccc(N(C)C)cc1` (stereo partly drawn) [Z-Leu-Phe-CONH--CH2 CH(OH)C6 H4 (4-N(CH3)2)], the Ki in test [1] (setting [4]) worked out at 0.62 µM. In addition, the IC50 was 58 µM in test [2] and 28 µM in test [3].
For the compound `CC(C)C[C@H](NC(=O)OCc1ccccc1)C(=O)N[C@@H](Cc1ccccc1)C(=O)C(=O)NCC(O)c1cccc(Oc2cccc(C(F)(F)F)c2)c1` (stereo partly drawn) [Z-Leu-Phe-CONH--CH2 CH(OH)C6 H4 -3-OC6 H4 (3-CF3)], in test [1] (setting [4]), the inhibition constant Ki was determined as 0.18 µM. In addition, the values for the concentration for half-maximal inhibition (IC50) in test [2] and in test [3] were 80 µM and 70 µM, respectively.
Turning to `CC(C)C[C@H](NC(=O)OCc1ccccc1)C(=O)N[C@@H](Cc1ccccc1)C(=O)C(=O)NCC(O)c1ccccc1` (stereo partly drawn) [Z-Leu-Phe-CONH-CH2 CH(OH)-Ph, Z-Leu-Phe-CONH--CH2 CH(OH)Ph], the Ki in test [1] (setting [4]) was 1.3 µM; on calpain II from rabbit, 0.05 µM; at cathepsin B it was 2.1 µM. For the same compound, the results for the IC50 in test [2] and in test [3] were 102 µM and 44 µM, respectively.

The term Ki denotes the dissociation constant of the complex between target and ligand, obtained from inhibition or displacement. One may read the IC50 as the concentration at which inhibition is half-maximal.
